Tests used:
[1] = test system: normal NK cells expanded with K562-aAPC; experiment: percent inhibition of viability; higher = more inhibition; conditions: 72 h, IL-2 2.5 ng/mL
Protocol: (§1)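 Drug sensitivity and resistance testing on K562-aAPC-expanded normal NK cells: 5 concentrations (10-fold steps over a 10,000-fold range), 72 h at 37 °C, viability by CellTiter-Glo normalised to DMSO and benzethonium chloride controls; DSS from the fitted curve.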

SNK-6 (IL-2 2.5 ng/mL) [2] = experiment: drug sensitivity score (DSS) (DSS units); higher = more sensitive; extreme values may be limits of the assay; conditions: 72 h
YT (IL-2 2.5 ng/mL) [3] = experiment: as above; conditions: 72 h
KAI3 (IL-2 2.5 ng/mL) [4] = experiment: as above; conditions: 72 h
NK-92 (IL-2 2.5 ng/mL) [5] = experiment: as above; conditions: 72 h
IMC-1 (IL-2 20 ng/mL) [6] = experiment: as above; conditions: 72 h
NKL (IL-2 2.5 ng/mL) [7] = experiment: as above; conditions: 72 h
[8] = test system: normal primary NK cells, pool 2 (3 donors) (IL-2 2.5 ng/mL); experiment: as above; conditions: 72 h
[9] = test system: normal primary NK cells, pool 3 (3 donors) (IL-2 2.5 ng/mL); experiment: as above; conditions: 72 h
[10] = test system: normal primary NK cells, pool 1 (3 donors) (IL-2 2.5 ng/mL); experiment: as above; conditions: 72 h
[11] = test system: normal primary NK cells, pool 1 (3 donors), resting (IL-2 0 ng/mL); experiment: as above; conditions: 72 h
KHYG-1 (IL-2 2.5 ng/mL) [12] = experiment: as above; conditions: 72 h
NK-YS (IL-2 2.5 ng/mL) [13] = experiment: as above; conditions: 72 h
DERL-7 (IL-2 2.5 ng/mL) [14] = experiment: as above; conditions: 72 h
[15] = test system: normal NK cells expanded with K562-aAPC; experiment: as above; conditions: 72 h; IL-2 2.5 ng/mL
Protocol: as §1

SNK-6 (IL-2 2.5 ng/mL) [16] = experiment: percent inhibition of viability; higher = more inhibition; conditions: 72 h
YT (IL-2 2.5 ng/mL) [17] = experiment: as above; conditions: 72 h
KAI3 (IL-2 2.5 ng/mL) [18] = experiment: as above; conditions: 72 h
NK-92 (IL-2 2.5 ng/mL) [19] = experiment: as above; conditions: 72 h
IMC-1 (IL-2 20 ng/mL) [20] = experiment: as above; conditions: 72 h
NKL (IL-2 2.5 ng/mL) [21] = experiment: as above; conditions: 72 h
[22] = test system: normal primary NK cells, pool 2 (3 donors) (IL-2 2.5 ng/mL); experiment: as above; conditions: 72 h
[23] = test system: normal primary NK cells, pool 3 (3 donors) (IL-2 2.5 ng/mL); experiment: as above; conditions: 72 h
[24] = test system: normal primary NK cells, pool 1 (3 donors) (IL-2 2.5 ng/mL); experiment: as above; conditions: 72 h
[25] = test system: normal primary NK cells, pool 1 (3 donors), resting (IL-2 0 ng/mL); experiment: as above; conditions: 72 h
KHYG-1 (IL-2 2.5 ng/mL) [26] = experiment: as above; conditions: 72 h
NK-YS (IL-2 2.5 ng/mL) [27] = experiment: as above; conditions: 72 h
DERL-7 (IL-2 2.5 ng/mL) [28] = experiment: as above; conditions: 72 h

NC(=O)Nc1sc(-c2ccc(F)cc2)cc1C(N)=O [TPCA-1] (max concentration tested 25000 nM)
percent inhibition of viability [%]
Conditions	2.5 nM	25 nM	250 nM	2500 nM	25000 nM
DERL-7 (IL-2 2.5 ng/mL) [28]	0.71	4.69	36.8	94	100
IMC-1 (IL-2 20 ng/mL) [20]	-2.64	-8.76	-6.99	3.86	99.3
KAI3 (IL-2 2.5 ng/mL) [18]	-6.8	-3.3	53.5	89.1	91.4
KHYG-1 (IL-2 2.5 ng/mL) [26]	-2.05	-6.88	25.8	101	97.8
NK-92 (IL-2 2.5 ng/mL) [19]	-11.2	-10.8	8.78	80.4	91.7
NK-YS (IL-2 2.5 ng/mL) [27]	-6.85	-4.02	17	58	94.8
NKL (IL-2 2.5 ng/mL) [21]	-2.04	-2.79	45.8	72.9	87.4
SNK-6 (IL-2 2.5 ng/mL) [16]	-12.6	-19.3	33.2	75.8	93.2
YT (IL-2 2.5 ng/mL) [17]	-3.91	-4.44	13.1	79.6	97.9
[1]	-0.68	-4.88	18.2	88.4	98.1
[22]	-8.08	-4.41	24.2	69.5	87.1
[23]	-6.13	-4.52	15.6	67.3	91.3
[24]	-12.8	-10.6	13.2	73.4	94.3
[25]	-1.07	1.15	3.48	43.5	82.3

Conditions	drug sensitivity score
DERL-7 (IL-2 2.5 ng/mL) [14]	21.5
IMC-1 (IL-2 20 ng/mL) [6]	6.04
KAI3 (IL-2 2.5 ng/mL) [4]	23
KHYG-1 (IL-2 2.5 ng/mL) [12]	21.9
NK-92 (IL-2 2.5 ng/mL) [5]	15.9
NK-YS (IL-2 2.5 ng/mL) [13]	13.2
NKL (IL-2 2.5 ng/mL) [7]	20
SNK-6 (IL-2 2.5 ng/mL) [2]	18.2
YT (IL-2 2.5 ng/mL) [3]	16.3
[8]	15.8
[9]	14.5
[10]	15.2
[11]	9.72
[15]	18.4

Clc1ccccc1C(c1ccccc1)(c1ccccc1)n1cccn1 [TRAM-34] (max concentration tested 1000 nM)
percent inhibition of viability [%]
Conditions	0.1 nM	1 nM	10 nM	100 nM	1000 nM
DERL-7 (IL-2 2.5 ng/mL) [28]	2.4	-1.24	1.99	-0.74	3.63
IMC-1 (IL-2 20 ng/mL) [20]	-7.73	1.38	0.84	6.67	8.82
KAI3 (IL-2 2.5 ng/mL) [18]	-2.69	4.59	-1.47	2.61	4.51
KHYG-1 (IL-2 2.5 ng/mL) [26]	-1.11	0.96	-3.26	0.95	-0.5
NK-92 (IL-2 2.5 ng/mL) [19]	-8.56	-5.28	-2.17	-14.1	11.6
NK-YS (IL-2 2.5 ng/mL) [27]	1.9	0.93	2.82	2.55	8.67
NKL (IL-2 2.5 ng/mL) [21]	-1.68	-6.27	6.64	4.13	5.01
SNK-6 (IL-2 2.5 ng/mL) [16]	5.28	12.6	2.07	24	3.1
YT (IL-2 2.5 ng/mL) [17]	-3.41	-5.82	-7.53	-11.9	12.2
[1]	-6.55	1.68	-0.18	9.02	12.7
[22]	-11.6	-1.76	12.1	-4.19	0.97
[23]	-3.16	-4.73	5.06	-3.53	6.24
[24]	3.23	-13.1	1.01	-11	-5.83
[25]	-5.83	-36.5	-10.7	-18.8	-3.17

Conditions	drug sensitivity score
DERL-7 (IL-2 2.5 ng/mL) [14]	0
IMC-1 (IL-2 20 ng/mL) [6]	0
KAI3 (IL-2 2.5 ng/mL) [4]	0
KHYG-1 (IL-2 2.5 ng/mL) [12]	0
NK-92 (IL-2 2.5 ng/mL) [5]	0
NK-YS (IL-2 2.5 ng/mL) [13]	0
NKL (IL-2 2.5 ng/mL) [7]	0
SNK-6 (IL-2 2.5 ng/mL) [2]	0
YT (IL-2 2.5 ng/mL) [3]	0
[8]	0
[9]	0
[10]	0
[11]	0
[15]	0.49

CC(=O)Nc1ccc(C(=O)Nc2ccccc2N)cc1 [Tacedinaline] (max concentration tested 1000 nM)
percent inhibition of viability [%]
Conditions	0.1 nM	1 nM	10 nM	100 nM	1000 nM
DERL-7 (IL-2 2.5 ng/mL) [28]	-0.72	2.51	4.2	-1.26	-25
IMC-1 (IL-2 20 ng/mL) [20]	-3.66	-4.64	-1.29	1.46	17.6
KAI3 (IL-2 2.5 ng/mL) [18]	-0.2	1.1	-0.46	-0.59	35.3
KHYG-1 (IL-2 2.5 ng/mL) [26]	-0.97	-4.06	-3.24	4.27	16.5
NK-92 (IL-2 2.5 ng/mL) [19]	-18.8	2.67	-7.86	1.73	27.5
NK-YS (IL-2 2.5 ng/mL) [27]	-0.71	-3.09	-0.76	2.62	20.6
NKL (IL-2 2.5 ng/mL) [21]	-13.2	-9.56	-8.35	10.4	13.4
SNK-6 (IL-2 2.5 ng/mL) [16]	1.48	-10.9	-5.83	1.17	46.3
YT (IL-2 2.5 ng/mL) [17]	-4.71	-3.94	-0.65	4.76	25.3
[1]	-1.06	-4	-3.33	3.27	14
[22]	-2.79	13	9.29	6.96	7.45
[23]	-4.4	14.9	12.8	-1.16	-0.28
[24]	-1.61	16.8	8.47	8.43	13
[25]	-5.67	17.3	11.8	17	7.91

Conditions	drug sensitivity score
DERL-7 (IL-2 2.5 ng/mL) [14]	0
IMC-1 (IL-2 20 ng/mL) [6]	0.58
KAI3 (IL-2 2.5 ng/mL) [4]	1.62
KHYG-1 (IL-2 2.5 ng/mL) [12]	0.78
NK-92 (IL-2 2.5 ng/mL) [5]	1.36
NK-YS (IL-2 2.5 ng/mL) [13]	1
NKL (IL-2 2.5 ng/mL) [7]	0.67
SNK-6 (IL-2 2.5 ng/mL) [2]	2.54
YT (IL-2 2.5 ng/mL) [3]	1.69
[8]	0
[9]	0
[10]	0.6
[11]	5.06
[15]	0.42

From the supplement of paper PMC5908809
